Values quoted from earlier work, collected in patent publication US20210378997A1, “INHIBITOR OF RENAL FIBROSIS IN DIABETIC NEPHROPATHY” (KYOTO PREFECTURAL PUBLIC UNIVERSITY CORPORATION, priority 2018, published 2021).

Conditions: patients with diabetic nephropathy, 1-year medication

Cc1ccc(=O)n(-c2ccccc2)c1 [pirfenidone]
renal function (eGFR): significantly improved
